Test results as given in patent publication US20090105278A1, “Selective inhibitors of human corticosteroid syntheses” (Universitat Des Saarlandes, priority 2004, published 2009).
Where a name gives a salt, the structure may show the parent alone. Read-outs that look alike come from different tables or passages of the source.

How the values were obtained:
human placental CYP19 = biological target: T1, human placental CYP19 (Homo sapiens, UniProt P11511); experiment: IC50 of CYP19 (human placental microsomes); type: biochemical
T1 construct: The enzyme was obtained from the microsome fraction of fresh human placenta; from tissue; host or cells: human placenta, microsomal fraction
T1 sequence (P11511 1-503): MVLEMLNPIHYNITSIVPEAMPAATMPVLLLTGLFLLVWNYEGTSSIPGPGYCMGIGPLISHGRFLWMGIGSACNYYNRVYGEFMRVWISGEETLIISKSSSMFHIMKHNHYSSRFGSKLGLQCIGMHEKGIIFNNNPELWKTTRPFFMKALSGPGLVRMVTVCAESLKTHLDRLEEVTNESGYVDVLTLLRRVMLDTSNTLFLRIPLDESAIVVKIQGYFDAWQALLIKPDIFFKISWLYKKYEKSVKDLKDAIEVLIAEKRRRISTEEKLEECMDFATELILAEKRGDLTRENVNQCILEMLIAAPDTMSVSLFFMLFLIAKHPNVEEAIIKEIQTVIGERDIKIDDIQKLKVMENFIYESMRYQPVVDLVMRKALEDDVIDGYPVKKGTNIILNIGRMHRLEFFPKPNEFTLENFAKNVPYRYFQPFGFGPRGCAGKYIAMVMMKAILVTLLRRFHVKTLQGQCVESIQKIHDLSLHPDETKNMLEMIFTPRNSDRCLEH
Procedure: The isolated microsomes were suspended in a minimum volume of phosphate buffer (0.05 M; pH 7.4; […]). In addition, DTT (10 mM) and EDTA (1 mM) were added to protect the enzyme from degradation reactions.
[…] […] The compounds to be tested were dissolved in DMSO and diluted with buffer to the desired concentration. The final DMSO concentration of the control and inhibitor incubations was about 20%. Each vessel was preincubated in a water bath at 30° C. for 5 min. The reaction was started by adding the microsomal protein (0.1 mg). The total volume of each mixture was 200 μl. After 14 min, the reaction was quenched by adding 200 μl of ice cold 1 mM HgCl2 solution. Two hundred microliters of a 2% aqueous suspension of dextran-coated charcoal, DCC) was added for absorbing the steroids, and the vessels were shaken for 20 min. Thereafter, the charcoal was centrifuged off at 1500 g for 5 min. The radioactive water present in the supernatant (^3H2O) was assayed by scintillation measurement using an LKB-Wallac beta counter. The calculation of the IC50 values was effected by a semilogarithmic plot of the percent inhibition against the inhibitor concentration.

human CYP11B1 = biological target: T2, human CYP11B1 (Homo sapiens, UniProt P15538); experiment: V79 MZh 11B1 cells inhibition test; type: cell-based
T2 construct: expressed in transfected cells; host or cells: V79 MZh11B1 (Chinese hamster lung fibroblasts)
T2 sequence (P15538 25-503): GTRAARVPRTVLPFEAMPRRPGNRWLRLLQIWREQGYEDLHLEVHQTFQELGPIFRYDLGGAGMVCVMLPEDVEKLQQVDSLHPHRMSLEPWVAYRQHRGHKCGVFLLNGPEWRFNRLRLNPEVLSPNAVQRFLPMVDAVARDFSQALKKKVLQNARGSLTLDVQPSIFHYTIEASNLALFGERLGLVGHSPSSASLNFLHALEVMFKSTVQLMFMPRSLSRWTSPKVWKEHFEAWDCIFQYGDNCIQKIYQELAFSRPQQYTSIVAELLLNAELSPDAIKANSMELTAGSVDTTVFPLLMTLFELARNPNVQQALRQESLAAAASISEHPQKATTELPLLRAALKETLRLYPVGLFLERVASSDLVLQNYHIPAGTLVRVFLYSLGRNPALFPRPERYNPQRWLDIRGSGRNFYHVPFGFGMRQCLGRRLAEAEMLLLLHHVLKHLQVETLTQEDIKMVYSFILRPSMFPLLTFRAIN
Procedure: Both cell lines were cultured in DMEM^+ containing […] and the antibiotics penicillin and streptomycin (10%) for protection from bacterial contamination. The cells were passaged every 2-3 days after treatment with trypsin/EDTA because the doubling rate was 1-2 days depending on the number of cells. […] When there was further need, freshly thawed cells were employed.
Thereafter, the plate was stored at 37° C. and […] in a CO2 incubator. […] Controls without inhibitor were treated in the same way. The enzyme reactions were quenched by extracting the supernatant with 500 μl of EtOAc. The samples were centrifuged (10,000 g, 2 min), the solvent was removed and evaporated.
It was calculated by determining the percent inhibition for at least 3 different inhibitor concentrations, which must all be in the linear range of the sigmoidal IC50 curve (log C/% inhibition).
The calculation was effected by linear regression. The values determined were used only if they formed a straight line with a reliability of […].
The plate was developed twice with the mobile solvent chloroform:methanol:water (300:20:1). Unlabeled 11-deoxycorticosterone and corticosterone were applied as a reference for the CYP11B1 reaction. For the CYP11B2 reaction, 11-deoxycorticosterone, corticosterone, 18-hydroxycorticosterone and aldosterone were used as references. The detection of the unlabeled references was effected at 260 nm. Subsequently, imaging plates (BAS MS2340, for ^14C samples, Raytest, Straubenhardt, Germany) were exposed to the HPTLC plates for 48 h. The imaging plates were scanned with the phosphoimager system Fuji FLA 3000 (Raytest, Straubenhardt, Germany), and the steroids were quantified.

[1] = human placental CYP19, testosterone substrate 2.5 μM
[2] = hamster fibroblasts which express human CYP11B1, deoxycorticosterone substrate 100 nM, read-out: IC50 V79 11B1 hCYP11B1

Row | IC50 (human placental CYP19; [1]) [nM] | IC50 (human CYP11B1; [2]) [nM] | Molecule | IC50 (human CYP11B1; Table 7: preincubation 1 h, DOC 100 nM, incubation 140 min, read-out: V79MZh11B1 CYP11B1 DOC [IC50]) [nM] | IC50 (human placental CYP19) [nM]
1 | 4260 | 1470 | Clc1ccc2c(c1)CC/C2=C\c1cccnc1 [Compound 7a, 3-[(E)-(5-Chloro-2.3-dihydro-1H-indane-1-ylidene)methyl]pyridine Hydrochloride] |  | 
2 | 7080 | 2370 | CCOc1ccc2c(c1)CC/C2=C\c1cccnc1 [Compound 19a, 3-[(E)-(5-Ethoxy-2,3-dihydro-1H-indane-1-ylidene)methyl]pyridine Hydrochloride] |  | 
3 | 7830 | 1940 | Brc1ccc2c(c1)CC/C2=C\c1cccnc1 [Compound 9a, 3-[(E)-(5-Bromo-2,3-dihydro-1H-indane-1-ylidene)methyl]pyridine Hydrochloride] |  | 
4 | 4050 | 270 | Clc1ccc2c(c1)CC/C2=C/c1cccnc1 [Compound 7b, 3-[(Z)-(5-Chloro-2,3-dihydro-1H-indane-1-ylidene)methyl]pyridine Hydrochloride] |  | 
5 | 4720 | 763 | Cc1cccc2c1CC/C2=C\c1cccnc1 [Compound 23a, 3-[(E)-(4-Methyl-2,3-dihydro-1H-indane-1-ylidene)methyl]pyridine Hydrochloride] |  | 
6 | 1940 | 374 | Fc1ccc2c(c1)CC/C2=C/c1cccc2cnccc12 [Compound 30b, 5-[(Z)-(5-Fluoro-2,3-dihydro-1H-indane-1-ylidene)methyl]isoquinoline Hydrochloride] |  | 
7 | 6580 | 715 | C(=C1/CCCc2ccccc21)/c1cccnc1.Cl [Compound 3a, 3-[(E)-3,4-Dihydronaphthalene-1(2H)-ylidenemethyl]pyridine Hydrochloride] |  | 
8 | 720 | 1130 | Fc1ccc2c(c1)CC/C2=C\c1cccc2cnccc12 [Compound 30a, 5-[(E)-(5-Fluoro-2,3-dihydro-1H-indane-1-ylidene)methyl]isoquinoline Hydrochloride] |  | 
9 | 230 | 657 | Clc1cccc2c1CC/C2=C/c1cccnc1 [Compound 25b, 3-[(Z)-(4-Chloro-2,3-dihydro-1H-indane-1-ylidene)methyl]pyridine Hydrochloride] |  | 
10 | 3790 | 1420 | C(=C1\CCCc2ccccc21)/c1cccnc1.Cl [Compound 3b, 3-[(Z)-3,4-Dihydronaphthalene-1(2H)-ylidenemethyl]pyridine Hydrochloride] |  | 
11 | 7370 | 320 | Brc1ccc2c(c1)CC/C2=C/c1cccnc1 [Compound 9b, 3-[(Z)-(5-Bromo-2,3-dihydro-1H-indane-1-ylidene)methyl]pyridine Hydrochloride] |  | 
12 | 4310 | 1450 | COc1ccc2c(c1)CC/C2=C\c1cccnc1 [Compound 11a, 3-[(E)-(5-Methoxy-2,3-dihydro-1H-indane-1-ylidene)methyl]pyridine Hydrochloride] |  | 
13 | 130 | 304 | Clc1cccc2c1CC/C2=C\c1cccnc1 [Compound 25a, 3-[(E)-(4-Chloro-2,3-dihydro-1H-indane-1-ylidene)methyl]pyridine Hydrochloride] |  | 
14 | 12700 | 1320 | C(=C1\CCc2ccccc21)/c1ccncc1 [Compound 2b, 4-[(Z)-2,3-Dihydro-1H-indane-1-ylidenemethyl]pyridine oxalate] |  | 
15 | 7450 | 3180 | Fc1ccc2c(c1)CC/C2=C\c1cncnc1 [Compound 28a, 5-[(E)-(5-Fluoro-2,3-dihydro-1H-indane-1-ylidene)methyl]pyrimidine Hydrochloride] |  | 

Row | Molecule | IC50 (human placental CYP19; [1]) [nM] | IC50 (human CYP11B1; [2]) [nM] | IC50 (human CYP11B1; Table 7: preincubation 1 h, DOC 100 nM, incubation 140 min, read-out: V79MZh11B1 CYP11B1 DOC [IC50]) [nM] | IC50 (human placental CYP19) [nM]
16 | Fc1ccc2c(c1)CC/C2=C\c1ccncc1 [Compound 6a, 4-[(E)-(5-Fluoro-2,3-dihydro-1H-indane-1-ylidene)methyl]pyridine Hydrochloride] | 1550 | 380 |  | 
17 | Cl.Clc1ccc2c(c1)CC/C2=C\c1cnc[nH]1 [Compound 48a, 5-[(E)-(5-Chloro-2,3-dihydro-1H-indene-1-ylidene)methyl]-1H-imidazolium chloride] | 330 |  |  | 
18 | Fc1ccc2c(c1)CC/C2=C/c1cccnc1 [Compound 5b, 3-[(Z)-(5-Fluoro-2,3-dihydro-1H-indane-1-ylidene)methyl]pyridine Hydrochloride] | 2490 | 125 | 125 | 
19 | Brc1ccc2c(c1)CC/C2=C\c1ccncc1 [Compound 10a, 4-[(E)-(5-Bromo-2,3-dihydro-1H-indane-1-ylidene)methyl]pyridine Hydrochloride] |  | 948 |  | 
20 | C(=C1\CCc2ccccc21)/c1cnc[nH]1 [Compound 42b, 5-[(Z)-2,3-Dihydro-1H-ind-1-ylidenemethyl]-1H-imidazolium oxalate] |  | 6.1 |  | 
21 | 5-[(E)-(6-Chloro-3,4-dihydronaphth-1(2H)-ylidene)methyl]-1H-imidazolium chloride [Compound 46a] | 120 |  |  | 
22 | Fc1ccc2c(c1)CC/C2=C/c1ccncc1 [Compound 6b, 4-[(Z)-(5-Fluoro-2,3-dihydro-1H-indane-1-ylidene)methyl]pyridine Hydrochloride] | 800 | 257 |  | 
23 | C(=C1\CCc2ccccc21)/c1cccnc1.Cl [Compound 1b, 3-[(Z)-2,3-Dihydro-1H-indane-1-ylidenemethyl]pyridine Hydrochloride] |  | 86.6 |  | 3550
24 | Fc1ccc2c(c1)CC/C2=C\c1cccnc1 [Compound 5a, 3-[(E)-(5-Fluoro-2,3-dihydro-1H-indane-1-ylidene)methyl]pyridine Hydrochloride] | 2540 | 311 |  | 
25 | C(=C1/CCc2ccccc21)/c1cnc[nH]1 [Compound 42a, 5-[(E)-2,3-Dihydro-1H-indane-1-ylidenemethyl]-1H-imidazole] |  | 25.9 |  | 
26 | Clc1ccc2c(c1)CC/C2=C\c1ccncc1 [Compound 8a, 4-[(E)-(5-Chloro-2,3-dihydro-1H-indane-1-ylidene)methyl]pyridine Hydrochloride] | 5430 | 243 |  | 
27 | 5-[(Z)-(5-Chloro-2,3-dihydro-1H-indene-1-ylidene)methyl]-1H-imidazolium oxalate [Compound 48b] | 39 |  |  | 
28 | C(=C1/CCCc2ccccc21)/c1cnc[nH]1 [Compound 41a, 5-[(E)-3,4-Dihydronaphth-1(2H)-ylidenemethyl]-1H-imidazole] | 226 |  |  | 
29 | 5-[(Z)-(5-Bromo-2,3-dihydro-1H-indene-1-ylidene)methyl]-1H-imidazolium oxalate [Compound 49b] |  | 23.5 |  | 
30 | 5-[(Z)-3,4-Dihydronaphth-1(2H)-ylidenemethyl]-1H-imidazolium oxalate [Compound 41b] | 190 |  |  | 
